# Laboratory results taken from the supplement of paper PMC10307832.
# Assays:
# Assay in all cases: relative viability (nuclei count vs DMSO), 5 days (fraction); higher = more cells survive
# A-427 = tested on: A-427
# In short: (§1)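 Five library-drug doses in √10 steps were combined with a fixed anchor-drug dose, or a single drug was given alone, by pin tool to lung cancer cell lines in 1536-well plates the day after seeding. Nuclei were stained and counted after 5 days. Relative viability is the nuclei count in treated wells over that in vehicle wells, taken as the median of duplicate plates.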
# COR-L 105 = tested on: COR-L 105
# In short: as §1
# EPLC-272H = tested on: EPLC-272H
# In short: as §1
# HCC-366 = tested on: HCC-366
# In short: as §1
# HCC-78 = tested on: HCC-78
# In short: as §1
# HOP-62 = tested on: HOP-62
# In short: as §1
# LC-2-ad = tested on: LC-2-ad
# In short: as §1
# LCLC-97TM1 = tested on: LCLC-97TM1
# In short: as §1
# LU99A = tested on: LU99A
# In short: as §1
# LXF-289 = tested on: LXF-289
# In short: as §1
# NCI-H1755 = tested on: NCI-H1755
# In short: as §1
# NCI-H1792 = tested on: NCI-H1792
# In short: as §1
# NCI-H1915 = tested on: NCI-H1915
# In short: as §1
# NCI-H1975 = tested on: NCI-H1975
# In short: as §1
# NCI-H2085 = tested on: NCI-H2085
# In short: as §1
# NCI-H460 = tested on: NCI-H460
# In short: as §1
# SK-LU-1 = tested on: SK-LU-1
# In short: as §1
# UMC-11 = tested on: UMC-11
# In short: as §1
smiles,measurement,setting,value
Oc1nc(-c2ccc(C(F)(F)F)cc2)nc2c1CSCC2 [XAV939] + CC(C)C[C@H](NC(=O)[C@H](Cc1ccccc1)NC(=O)c1cnccn1)B(O)O [Bortezomib] (partner 0.002 µM),relative viability,A-427; first compound 0.08 µM,1.06
same,relative viability,A-427; first compound 0.253 µM,0.977
same,relative viability,A-427; first compound 0.8 µM,0.883
same,relative viability,A-427; first compound 2.53 µM,0.769
same,relative viability,COR-L 105; first compound 0.08 µM,0.853
same,relative viability,COR-L 105; first compound 0.253 µM,0.755
same,relative viability,COR-L 105; first compound 0.8 µM,0.618
same,relative viability,COR-L 105; first compound 2.53 µM,0.567
same,relative viability,EPLC-272H; first compound 0.08 µM,1.05
same,relative viability,EPLC-272H; first compound 0.253 µM,0.816
same,relative viability,EPLC-272H; first compound 0.8 µM,1.02
same,relative viability,EPLC-272H; first compound 2.53 µM,0.91
same,relative viability,HCC-366; first compound 0.08 µM,1.12
same,relative viability,HCC-366; first compound 0.253 µM,0.991
same,relative viability,HCC-366; first compound 0.8 µM,1.01
same,relative viability,HCC-366; first compound 2.53 µM,1.05
same,relative viability,HCC-78; first compound 0.08 µM,0.517
same,relative viability,HCC-78; first compound 0.253 µM,0.363
same,relative viability,HCC-78; first compound 0.8 µM,0.526
same,relative viability,HCC-78; first compound 2.53 µM,0.405
same,relative viability,HOP-62; first compound 0.08 µM,1.19
same,relative viability,HOP-62; first compound 0.253 µM,0.73
same,relative viability,HOP-62; first compound 0.8 µM,0.988
same,relative viability,HOP-62; first compound 2.53 µM,0.352
same,relative viability,LC-2-ad; first compound 0.08 µM,1.01
same,relative viability,LC-2-ad; first compound 0.253 µM,0.919
same,relative viability,LC-2-ad; first compound 0.8 µM,0.984
same,relative viability,LC-2-ad; first compound 2.53 µM,0.887
same,relative viability,LCLC-97TM1; first compound 0.08 µM,0.589
same,relative viability,LCLC-97TM1; first compound 0.253 µM,0.517
same,relative viability,LCLC-97TM1; first compound 0.8 µM,0.472
same,relative viability,LCLC-97TM1; first compound 2.53 µM,0.505
same,relative viability,LU99A; first compound 0.08 µM,1.26
same,relative viability,LU99A; first compound 0.253 µM,0.714
same,relative viability,LU99A; first compound 0.8 µM,1.01
same,relative viability,LU99A; first compound 2.53 µM,1.19
same,relative viability,LXF-289; first compound 0.08 µM,1.05
same,relative viability,LXF-289; first compound 0.253 µM,0.966
same,relative viability,LXF-289; first compound 0.8 µM,0.994
same,relative viability,LXF-289; first compound 2.53 µM,1.05
same,relative viability,NCI-H1755; first compound 0.08 µM,0.91
same,relative viability,NCI-H1755; first compound 0.253 µM,0.884
same,relative viability,NCI-H1755; first compound 0.8 µM,0.86
same,relative viability,NCI-H1755; first compound 2.53 µM,0.868
same,relative viability,NCI-H1792; first compound 0.08 µM,0.945
same,relative viability,NCI-H1792; first compound 0.253 µM,0.943
same,relative viability,NCI-H1792; first compound 0.8 µM,0.973
same,relative viability,NCI-H1792; first compound 2.53 µM,0.869
same,relative viability,NCI-H1915; first compound 0.08 µM,1.06
same,relative viability,NCI-H1915; first compound 0.253 µM,0.974
same,relative viability,NCI-H1915; first compound 0.8 µM,0.983
same,relative viability,NCI-H1915; first compound 2.53 µM,1.14
same,relative viability,NCI-H1975; first compound 0.08 µM,0.305
same,relative viability,NCI-H1975; first compound 0.253 µM,0.352
same,relative viability,NCI-H1975; first compound 0.8 µM,0.346
same,relative viability,NCI-H1975; first compound 2.53 µM,0.349
same,relative viability,NCI-H2085; first compound 0.08 µM,1.02
same,relative viability,NCI-H2085; first compound 0.253 µM,1.03
same,relative viability,NCI-H2085; first compound 0.8 µM,0.975
same,relative viability,NCI-H2085; first compound 2.53 µM,0.992
same,relative viability,NCI-H460; first compound 0.08 µM,1.45
same,relative viability,NCI-H460; first compound 0.253 µM,1.07
same,relative viability,NCI-H460; first compound 0.8 µM,1.05
same,relative viability,NCI-H460; first compound 2.53 µM,1.08
same,relative viability,SK-LU-1; first compound 0.08 µM,1.16
same,relative viability,SK-LU-1; first compound 0.253 µM,1.13
same,relative viability,SK-LU-1; first compound 0.8 µM,1.05
same,relative viability,SK-LU-1; first compound 2.53 µM,1.39
same,relative viability,UMC-11; first compound 0.08 µM,0.789
same,relative viability,UMC-11; first compound 0.8 µM,0.754
same,relative viability,UMC-11; first compound 2.53 µM,0.708
